Measured values from PMC2892883 (Behavioural brain research, 2010).

Target: mGluR8b (Homo sapiens, UniProt O00222)
Assay: […]GTPγS binding, inhibition of the potentiation by AZ12216052
Format: cell-based

Chain of mGluR8b (O00222 34-908 isoform O00222-2): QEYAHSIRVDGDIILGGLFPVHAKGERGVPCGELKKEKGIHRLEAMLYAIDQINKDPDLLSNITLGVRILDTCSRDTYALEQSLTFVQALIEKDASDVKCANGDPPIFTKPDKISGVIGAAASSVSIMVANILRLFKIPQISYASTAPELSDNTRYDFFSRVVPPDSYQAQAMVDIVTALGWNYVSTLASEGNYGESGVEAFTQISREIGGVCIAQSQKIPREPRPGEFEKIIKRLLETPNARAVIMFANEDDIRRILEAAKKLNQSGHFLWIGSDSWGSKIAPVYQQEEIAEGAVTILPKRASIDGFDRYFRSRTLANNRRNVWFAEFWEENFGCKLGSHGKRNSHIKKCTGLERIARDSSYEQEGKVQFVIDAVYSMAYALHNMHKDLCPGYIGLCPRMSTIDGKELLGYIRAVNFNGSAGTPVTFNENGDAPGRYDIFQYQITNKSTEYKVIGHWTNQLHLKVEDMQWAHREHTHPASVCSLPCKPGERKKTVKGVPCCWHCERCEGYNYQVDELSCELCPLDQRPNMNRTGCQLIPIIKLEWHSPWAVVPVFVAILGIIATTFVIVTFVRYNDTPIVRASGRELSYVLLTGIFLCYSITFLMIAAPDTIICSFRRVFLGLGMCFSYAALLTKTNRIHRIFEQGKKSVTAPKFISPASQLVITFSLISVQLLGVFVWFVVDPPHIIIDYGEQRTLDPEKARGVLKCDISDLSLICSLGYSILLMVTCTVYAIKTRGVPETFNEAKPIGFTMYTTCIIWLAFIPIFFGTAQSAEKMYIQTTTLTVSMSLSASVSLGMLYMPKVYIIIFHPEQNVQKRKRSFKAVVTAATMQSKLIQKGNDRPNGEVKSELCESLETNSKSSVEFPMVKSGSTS

NC(C(=O)O)(c1ccc(P(=O)(O)O)cc1)C1CC1 (racemic) [CPPG]
[35S]GTPγS binding, inhibition of the potentiation by AZ12216052: The potentiator effect of AZ12216052 on mGluR8 is inhibited by group-II/III antagonists LY341495 and CPPG
